Experiments:
RUP3 = target: T1, RUP3 (Homo sapiens, UniProt Q8TDV5); experiment: RUP3 dose responses in melanophores; assay type: cell-based; conditions: melanophores transfected with RUP3 expression vector
T1 construct: read from the listing, own knowledge; expressed in transfected cells; host or cells: melanophores, electroporated with the RUP3 expression vector (pCMV)
T1 sequence (Q8TDV5 with tags, fused parts or gaps): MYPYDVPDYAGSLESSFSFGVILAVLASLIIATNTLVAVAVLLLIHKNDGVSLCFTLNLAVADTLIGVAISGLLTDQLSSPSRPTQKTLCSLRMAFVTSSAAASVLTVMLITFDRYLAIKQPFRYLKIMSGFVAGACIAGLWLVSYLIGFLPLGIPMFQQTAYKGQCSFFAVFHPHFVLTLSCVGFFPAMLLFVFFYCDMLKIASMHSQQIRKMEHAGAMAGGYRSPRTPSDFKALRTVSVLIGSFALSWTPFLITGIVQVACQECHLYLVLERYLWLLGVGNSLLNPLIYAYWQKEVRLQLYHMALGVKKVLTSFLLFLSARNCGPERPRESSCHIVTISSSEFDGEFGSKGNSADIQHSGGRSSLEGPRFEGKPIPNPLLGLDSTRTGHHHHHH
Protocol: Protocol for RUP3 Dose Responses in Melanophores
Melanophores are maintained in culture as reported by Potenza, M. N. and Lerner, M. R., in Pigment Cell Research, Vol. 5, 372-378, 1992 and transfected with the RUP3 expression vector (pCMV) using electroporation. Following electroporation, the transfected cells are plated into 96 well plates for the assay. The cells are then allowed to grow for 48 hours in order to both recover from the electroporation procedure and attain maximal receptor expression levels.
On the assay day, the growth medium on the cells is replaced with serum-free buffer containing 10 nM melatonin. The melatonin acts via an endogenous Gi-coupled GPCR in the melanophores to lower intracellular cAMP levels. In response to lowered cAMP levels, the melanophores translocate their pigment to the center of the cell. The net effect of this is a significant decrease in the absorbance reading of the cell monolayer in the well, measured at […].
After a 1-hour incubation in melatonin, the cells become completely pigment-aggregated. At this point a baseline absorbance reading is collected. Serial dilutions of test compounds are then added to the plate and compounds that stimulate RUP3 produce increases in intracellular cAMP levels. In response to these increased cAMP levels, the melanophores translocate their pigment back into the cell periphery. After one hour, stimulated cells are fully pigment-dispersed. The cell monolayer in the dispersed state absorbs much more light in the 600-650 nm range. The measured increase in absorbance compared to the baseline reading allows one to quantitate the degree of receptor stimulation and plot a dose-response curve.
The compounds in the above examples were screened using the melanophore assay.

Male Sprague Dawley rats = experiment: Oral glucose tolerance test (oGTT) in rats; assay type: in vivo; conditions: rat, p.o.; for Mean % inhibition of glucose excursion: dextrose 2 g/kg, mean of six animals; for Effect on blood glucose after challenge with glucose: result in words
Protocol: In Vivo Effects of RUP3 Agonists on Glucose Homeostasis in Rats
A. Oral Glucose Tolerance Test (oGTT)
Male Sprague Dawley rats weighing approximately 200 g-250 g were fasted for 15 hours and randomly grouped (n=6) to receive a RUP3 agonist (Compounds A194, A214 or D4) at 3, 10 or 30 mg/kg. Compounds were delivered orally via a gavage needle (p.o., volume 3 mL/kg). At time 0, levels of blood glucose were assessed using a glucometer (Elite XL, Bayer), and rats were administered either vehicle (20% hydroxypropyl-beta-cyclodextrin) or test compound. Thirty minutes after administration of test compound, levels of blood glucose were again assessed, and rats were administered dextrose orally at a dose of 2 g/kg. Blood glucose measurements were then taken 30 min, 60 min, and 120 min after this time.

Compound | EC50 (RUP3) | Mean % inhibition of glucose excursion (Male Sprague Dawley rats; dose 30 mg/kg) | Effect on blood glucose after challenge with glucose (Male Sprague Dawley rats) | Mean % inhibition of glucose excursion (Male Sprague Dawley rats; dose 10 mg/kg)
CC(C)OC(=O)N1CCC(Oc2ncnc3c2cnn3-c2ccc(S(C)(=O)=O)cc2)CC1 [Compound A5, 4-[1-(4-Methanesulfonyl-phenyl)-1H-pyrazolo[3,4-d]pyrimidin-4-yloxy]-piperidine-1-carboxylic acid isopropyl ester] | 0.0127 µM |  |  | 
CC(C)Oc1ccc(C(=O)N2CCC(Oc3ncnc4c3cnn4-c3ccc(S(C)(=O)=O)cc3F)CC2)nc1 [Compound A194, {4-[1-(2-Fluoro-4-methanesulfonyl-phenyl)-1H-pyrazolo[3,4-d]pyrimidin-4-yloxy]-piperidin-1-yl}-(5-isopropoxy-pyridin-2-yl)-methanone] |  | 15%, (30) | lowered blood glucose after challenge with glucose | 
CC(C)OC(=O)N1CCC(Sc2ncnc3c2cnn3-c2ccc(S(C)(=O)=O)cc2F)CC1 [Compound A214, 4-[-(2-Fluoro-4-methanesulfonyl-phenyl)-1H-pyrazolo[3,4-d]-pyrimidin-4-ylsulfanyl]-piperidine-1-carboxylic acid isopropyl ester] |  |  | lowered blood glucose after challenge with glucose | 33%, (10)
CC(C)(C)OC(=O)N1CCC(Oc2ncnc3c2ncn3-c2ccc(S(C)(=O)=O)nc2)CC1 [Compound B5, 4-[9-(6-Methanesulfonyl-pyridin-3-yl)-9H-purin-6-yloxy]-piperidine-1-carboxylic acid tert-butyl ester] | 0.0591 µM |  |  | 
CC(C)(C)OC(=O)N1CCC(Oc2ncnc3c2nnn3-c2ccc(S(C)(=O)=O)cc2)CC1 [Compound C1, 4-[3-(4-Methanesulfonyl-phenyl)-3H-[1,2,3]triazolo[4,5-d]pyrimidin-7-yloxy]-piperidine-1-carboxylic acid tert-butyl ester] | 0.013 µM |  |  | 
CC(C)OC(=O)N1CCC(Oc2ncnc3c(-c4ccc(S(C)(=O)=O)cc4)noc23)CC1 [Compound D4, 4-[3-(4-methanesulfonyl-phenyl)-isoxazolo[4,5-d]pyrimidin-7-yloxy]-piperidine-1-carboxylic acid isopropyl ester] |  | 12%, (30) | lowered blood glucose after challenge with glucose | 

From patent US8410119B2, “Fused-aryl and heteroaryl derivatives as modulators of metabolism and the prophylaxis and treatment of disorders related thereto” (Arena Pharmaceuticals, Inc., priority 2003, dated 2013)
